“Also recorded” adds a separate entry of the source.
What was measured:
Pancreatic cancer cells = test: Anti-proliferative effects in pancreatic cancer cells (number of cells over time); assay type: cell-based, human
Description: Pancreatic cancer cells were treated with either LND or Mito-LND at varying concentrations and the number of cells was assayed over time.

mitochondrial Complex I = test: Mitochondrial complex I activity (OCR) in permeabilized H2030BrM3 cells after 24 h pretreatment; assay type: cell-based, human
Source text: (§1) LON and Mito-LON inhibit mitochondrial complex I activity. Mito-LON inhibited cellular respiration (oxygen consumption rate, OCR) at >100-fold lower concentration than LON in intact lung cancer cells (FIG. 9). Both basal respiration and the response to mitochondrial stressors (oligomycin, dinitrophenol) were diminished by Mito-LON (not shown). To investigate the mechanism of mitochondrial inhibition, we measured the activity of mitochondrial complexes in H2030BrM3 cells (NSCLC cell line). The cell membrane was permeabilized, and OCR was measured upon addition of substrates and inhibitors of mitochondrial complexes I-IV (FIG. 9A). These studies established the optimal use of permeabilized cells for complex activity assays.^54 Next, cells were pretreated with LON and Mito-LON for 24 h and experiments performed as in FIG. 9A. […] We hypothesize that inhibition of mitochondrial complexes I and II is the predominant mechanism for antiproliferative effects of Mito-LON on lung cancer cells.

mitochondrial complex II = target: T1, mitochondrial complex II (Homo sapiens, UniProt O14521+P21912+P31040+Q99643); test: Mitochondrial complex II activity (OCR) in permeabilized H2030BrM3 cells after 24 h pretreatment; assay type: cell-based
T1 construct: we measured the activity of mitochondrial complexes in H2030BrM3 cells (NSCLC cell line); endogenous in cells; host or cells: H2030BrM3
T1 sequence (P31040 43-664): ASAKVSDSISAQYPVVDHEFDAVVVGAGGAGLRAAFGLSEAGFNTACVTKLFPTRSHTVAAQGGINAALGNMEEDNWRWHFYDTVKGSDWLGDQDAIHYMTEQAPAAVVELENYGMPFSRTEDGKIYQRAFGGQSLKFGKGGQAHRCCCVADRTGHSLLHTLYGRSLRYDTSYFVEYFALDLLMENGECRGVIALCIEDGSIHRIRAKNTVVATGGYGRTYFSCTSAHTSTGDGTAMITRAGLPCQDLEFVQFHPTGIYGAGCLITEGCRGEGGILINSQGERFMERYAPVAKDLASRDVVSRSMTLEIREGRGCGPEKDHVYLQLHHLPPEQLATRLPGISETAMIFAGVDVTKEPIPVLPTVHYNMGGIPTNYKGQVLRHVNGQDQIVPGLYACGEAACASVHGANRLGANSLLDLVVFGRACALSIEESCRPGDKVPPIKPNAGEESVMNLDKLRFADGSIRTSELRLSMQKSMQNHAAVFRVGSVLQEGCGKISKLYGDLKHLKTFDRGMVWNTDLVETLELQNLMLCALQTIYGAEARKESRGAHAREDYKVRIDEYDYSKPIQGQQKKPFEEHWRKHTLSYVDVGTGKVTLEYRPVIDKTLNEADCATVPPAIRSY
T1 sequence (P21912 29-280): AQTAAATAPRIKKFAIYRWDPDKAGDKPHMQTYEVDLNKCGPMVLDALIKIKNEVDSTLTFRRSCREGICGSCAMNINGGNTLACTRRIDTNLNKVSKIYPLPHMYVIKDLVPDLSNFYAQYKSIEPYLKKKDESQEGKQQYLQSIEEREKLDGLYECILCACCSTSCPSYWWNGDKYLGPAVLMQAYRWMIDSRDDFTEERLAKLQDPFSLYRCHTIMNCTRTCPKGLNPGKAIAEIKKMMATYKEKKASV
T1 sequence (Q99643 30-169): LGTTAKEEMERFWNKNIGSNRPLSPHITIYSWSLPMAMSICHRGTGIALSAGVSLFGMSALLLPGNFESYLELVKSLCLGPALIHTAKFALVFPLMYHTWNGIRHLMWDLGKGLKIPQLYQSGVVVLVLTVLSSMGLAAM
T1 sequence (O14521 57-159): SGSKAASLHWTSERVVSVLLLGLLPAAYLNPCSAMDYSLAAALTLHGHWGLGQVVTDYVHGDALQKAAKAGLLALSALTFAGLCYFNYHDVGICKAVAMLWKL
Source text: as §1

[1] = tested on: PC9BrM3 and H2030BrM3 brain metastasis lung cancer cell lines; test: Boyden chamber (transwell) invasion assay; assay type: cell-based; conditions: Homo sapiens, H2030-BrM3, read-out: inhibitory effect on invasion when used alone
Source text: Mito-LON inhibits migration and invasion of brain metastatic human lung cancer cells. To investigate the potential of Mito-LON and LON for lung cancer metastasis, we first tested its effects in vitro via the Boyden chamber invasion assay using PC9BrM3 and H2030BrM3 brain metastasis lung cancer cell lines.

H2030BrM3 cells = test: Cellular ROS production, HPLC-based analysis of hydroethidine (HE) oxidation; assay type: cell-based, human; conditions: for ROS generation in lung cancer cells: concentration not given
Source text: (§2) Inhibition of mitochondrial respiration results in increased O2^⋅− and other oxidants.

cytosolic Prx1 = test: Redox status of cytosolic peroxiredoxin; assay type: cell-based, human; conditions: lung cancer cells
Source text: as §2

[2] = tested on: H2030 and H2030BrM3 cells; test: Autophagy and mitophagy markers in cell lysates, MDC staining; assay type: cell-based, human
Description: Mito-LON induces autophagic cell death in human lung cancer cell lines and lung-derived brain metastatic lines. To investigate potential mechanisms underlying Mito-LON's induction of cancer cell death that result from its inhibition of mitochondrial respiration and induction of ROS, we analyzed lysates of cells treated with Mito-LON [2.0 μM] for 0, 6, 24 and 48 h. Lysates were probed for proteins targeting energetics, apoptosis and autophagy, including selective mitophagy markers. Our data (FIG. 19) show Mito-LON treatment [2.0 μM] modulates key autophagy proteins, including specific mitophagy receptors, adaptor proteins and energy sensing molecules in H2030 lung cancer cells and the corresponding brain metastatic line (H2030BrM3). LC3, microtubule-associated protein light chain 3, is critical for cargo recruitment. The LC3 precursor is modified via an ubiquitination-like system generating soluble LC3-I, which is further modified to LC3-II, a membrane-bound phospholipid conjugate upon autophagy induction. LC3-II integrates into the autophagosome membrane and is considered a reliable early marker of autophagy induction. Mito-LON treatment (FIG. 19A) increased levels of LC3-II 1.9 to 4.4-fold across cell lines, with sustained modulation through 48 h. The LC3-interacting region (LIR) serves as a mechanistic basis for selective autophagy, including mitophagy which specifically targets degradation of damaged mitochondria via engagement of adaptor proteins (p62, NBR1, OPTN, BNIP3L). We evaluated the effects of Mito-LON on ubiquitin-binding mitophagy receptors (p62, NDP52, NBR1) which also indicate autophagic flux versus potential impairment of autophagosome turnover. […] Changes were consistently bimodal in Mito-LON treated H2030 cells, potentially due to P62's dual role in mitophagy, both in clustering of mitochondria as well as downstream degradation. […] PINK1 was included as an indicator of PINK1-Parkin dependent mitophagy. Basal levels of PINK1 are normally low with increases due to mitochondrial depolarization, damage and ATP alterations, as noted in both cell lines. Beclin1 (BECN1), an autophagy regulator and potential tumor suppressor gene product in multiple cancers, including NSCLC.
Thus, autophagy induction in the lung derived brain metastatic line may be BECN1-independent. […] NRF2, a major regulator of cellular stress responses, was not detectable in either cell line. FIG. 19B further supports autophagy induction by Mito-LON. […] Specifically, Mito-LON alters phosphorylation events and activating partners in parallel. As an example, P-P70S6K^Thr389 phosphorylates mTOR^Ser2448; both reduced in Mito-LON treated cells. Similarly, ULK is activated by AMPK, and both phosphoproteins are decreased by Mito-LON, as is P-PTEN.

[3] = tested on: H2030 and H2030BrM3 cells; test: Apoptosis markers in treated cells; assay type: cell-based, human
Source text: Mito-LON's effects on inducing apoptosis in human lung cancer cell lines and their lung-derived brain metastatic lines. Results from Mito-LON-treated H2030 and H2030BrM3 cells (FIG. 20) supports cell death induction is mainly via autophagy rather than caspase-dependent apoptosis.

[4] = tested on: VC-induced lung tumors in A/J mice; test: Vinyl carbamate (VC)-induced lung carcinogenesis, post-initiation protocol; assay type: in vivo, mouse
Source text: Preventive efficacy of Mito-LON on vinyl carbamate (VC)-Induced lung carcinogenesis using a post-initiation protocol. We evaluated the preventive efficacy of Mito-LON on the development of VC-induced lung tumors in A/J mice. A post-initiation protocol was used in this study by which administration of Mito-LON was initiated one week after VC. Mito-LON was given via oral gavage at a dose of 15 μmol/kg 5 days/week for 20 weeks.

O=C(NCCCCCCCCCC[P+](c1ccccc1)(c1ccccc1)c1ccccc1)c1nn(Cc2ccc(Cl)cc2Cl)c2ccccc12 [Mito-LON, Mito10-lonidamine]
IC50 (Pancreatic cancer cells; Homo sapiens, Pancreatic cancer cell, read-out: IC50, inhibiting the proliferation of cancer cells): 0.64 µM | fold more effective than LND in anti-proliferative effects (Pancreatic cancer cells; pancreatic cancer cells, FIG. 6): ~500 fold | fold more potent than LON for complex I (mitochondrial Complex I; 24 h pretreatment, FIG. 9B): 370 fold | Ki (mitochondrial Complex I; FIG. 9): 1.2 µM | IC50 (mitochondrial Complex I; H2030BrM3 lung cancer cells, FIG. 9, read-out: IC50, respiratory complex I): 1.2 µM | fold more potent than LON for complex II (mitochondrial complex II; 24 h pretreatment, FIG. 9B): 144 fold | Ki (mitochondrial complex II; FIG. 9): 2.7 µM | IC50 (mitochondrial complex II; H2030BrM3 lung cancer cells, FIG. 9, read-out: IC50, respiratory complex II): 2.7 µM | inhibition at 0.6 µM [1]: < 10% | intracellular levels of 2-OH-E+ (superoxide-specific product of HE oxidation) (H2030BrM3 cells; 0.2 μM, H2030BrM3 cells): increase | formation of diethidium (E+-E+) (H2030BrM3 cells; H2030BrM3 cells): strongly induced | ROS generation in lung cancer cells (H2030BrM3 cells): stimulates ROS generation; also recorded: induced ROS generation in mitochondria; also recorded: enhanced the formation of 2-hydroxyethidium; also recorded: increased ROS generation | ROS generation in lung cancer cells (H2030BrM3 cells; listed as Mito-LDN): stimulates ROS generation | effect on cytosolic Prx1 (cytosolic Prx1): without significant effect | NDP52 ([2]; 2.0 μM): paralleled P62 changes | Beclin-1 levels ([2]; 2.0 μM, H2030 and H2030-BrM3 cells): increased Beclin-1 levels in H2030 cells but not in H2030-BrM3 cells | autophagic vacuolization (bright field) ([2]; 2.0 μM, H2030 cells): markedly increased vacuolization | monodansylcadaverine (MDC) staining ([2]; 2.0 μM, H2030 cells): stained positive for MDC | P62 ([2]; 2.0 μM, both cell lines): modulated P62 in both cell lines | autophagy-initiating energy-sensing proteins of the AKT/mTOR signaling pathway ([2]; FIG. 19C): deactivates | RAB7 levels ([2]; H2030BrM3 cells): increased levels of RAB7 | caspase cleavage [3]: did not induce caspase cleavage | cleaved PARP and cytochrome c levels [3]: increased levels of cleaved PARP and cytochrome c | inhibition of VC-induced lung tumor development, total tumor load ([4]; 15 μmol/kg oral gavage 5 days/week for 20 weeks, A/J mice): 62% | body weight changes ([4]; 15 μmol/kg oral gavage, 20 weeks): did not observe any body weight changes

From patent US11352382B2, “Mito-lonidamine, compositions and methods of use” (THE MEDICAL COLLEGE OF WISCONSIN, INC., priority 2018, dated 2022)
